Test results from patent US20260193271A1, “PAN-KRAS INHIBITOR COMPOUND” (ADLAI NORTYE BIOPHARMA CO., LTD., priority 2022, published 2026).

Test system: AsPC-1 (G12D)
Assay: In vitro cell proliferation inhibition test (CellTiter-Glo), AsPC-1
Assay type: cell-based
Details: AsPC-1 pancreas cell line, KRAS (p.G12D), 72 h co-incubation
From the text: Test Example 1: In Vitro Cell Proliferation Inhibition Test
Due to the diversity of RAS mutations and in order to evaluate the activity of compounds in different RAS mutation cell lines, we selected KRAS^WT, KRAS^G12C, KRAS^G12D, KRAS^G12V and BRAF mutation cell lines (see the table below) for in vitro activity evaluation and screening of compounds.
Protocol: CellTiter-Glo® Cell Luminescent Viability Assay (Promega)
According to the doubling time of different cell lines, different numbers of cells (1000-5000 cells/well) were seeded in 96-well plates containing 180 μl of corresponding culture medium and cultured overnight in a cell culture incubator at 37° C. with 5% CO2. On the second day, the test compound was pre-diluted 3-fold with culture medium, with the highest concentration being 100 μM, for a total of 10 concentration gradients; then 20 μl of culture medium containing different concentrations of the compound was added to the cells in the 96-well plate to ensure that the final concentration of the compound was up to 10 μM, with 10 concentration gradients of 3-fold dilution. After the cells and compounds were co-incubated for 72 h, the 96-well plate was removed from the incubator and equilibrated at room temperature for 30 min. Then, 25 μl of CellTiter-Glo® Reagent was added to each well and mixed thoroughly. The mixture was incubated at room temperature for 10 min, and then 100 μl of the sample was transferred to a white 96-well plate (OptiPlate™-96, PerkinElmer). The […] signal value was read using a multi-function microplate reader (SpectraMax® i3x, Molecular devices). The signal values were then standardized, and the curve was fitted using a four-parameter regression equation to calculate the half maximal inhibitory concentration (IC50) of the compound on the cell line.

Row | IC50 [nM] | Structure (SMILES)
1 | 1230 | CCn1c(-c2cc(-c3ccc4c(c3)CCN(C)C4)cnc2C(C)OC)c2c3cc(ccc31)-c1csc(n1)CC(NC(=O)C1C(C)C1C)C(=O)N1CCCC(N1)C(=O)OCC(C)(C)C2 [Compound 3′, (1r,2R,3S)-N-((6^3S,4S,Z)-1^1-ethyl-1^2-(2-((S)-1-methoxyethyl)-5-(2-methyl-1,2,3,4-tetrahydroisoquinolin-6-yl)pyridin-3-yl)-10,10-dimethyl-5,7-dioxo-6^1,6^2,6^3,6^4,6^5,6^6-hexahydro-1^1H-8-oxa-2(4,2)-thiazola-1(5,3)-indola-6(1,3)-pyridazinacycloundecaphane-4-yl)-2,3-dimethylcyclopropane-1-carboxamide]
2 | 99 | CCn1c(-c2cc(-c3ccc(CN4CCOCC4)nc3)cnc2C(C)OC)c2c3cc(ccc31)-c1csc(n1)CC(NC(=O)C1CC1C)C(=O)N1CCCC(N1)C(=O)OCC(C)(C)C2 [Compound 5′, (1S,2S)-N-((6^3S,4S,Z)-1^1-ethyl-1^2-(6-((S)-1-methoxyethyl)-6′-(morpholinomethyl)-[3,3′-bipyridin]-5-yl)-10,10-dimethyl-5,7-dioxo-6^1,6^2,6^3,6^4,6^5,6^6-hexahydro-1^1H-8-oxa-2(4,2)-thiazola-1(5,3)-indola-6(1,3)-pyridazinacycloundecaphane-4-yl)-2-methylcyclopropane-1-carboxamide]
3 | 1460 | CCn1c(-c2cc(-c3ccc(CN4CCC(F)C4)cc3)cnc2C(C)OC)c2c3cc(ccc31)-c1csc(n1)CC(NC(=O)C1CC1C)C(=O)N1CCCC(N1)C(=O)OCC(C)(C)C2 [Compound 6′, (1S,2S)-N-((6^3S,4S,Z)-1^1-ethyl-1^2-(5-(4-(((R)-3-fluoropyrrolidin-1-yl)methyl)phenyl)-2-((S)-1-methoxyethyl)pyridin-3-yl)-10,10-dimethyl-5,7-dioxo-6^1,6^2,6^3,6^4,6^5,6^6-hexahydro-1^1H-8-oxa-2(4,2)-thiazola-1(5,3)-indola-6(1,3)-pyridazinacycloundecaphane-4-yl)-2-methylcyclopropane-1-carboxamide]
4 | 236 | CCn1c(-c2cc(-c3ccc(CN4CCN(C)CC4)cc3)cnc2[C@H](C)OC)c2c3cc(ccc31)-c1csc(n1)C[C@H](NC(=O)[C@H]1C[C@@H]1C)C(=O)N1CCC[C@H](N1)C(=O)OCC(C)(C)C2 [Compound 8′, (1S,2S)-N-((6^3S,4S,Z)-1^1-ethyl-1^2-(2-((S)-1-methoxyethyl)-5-(4-((4-methylpiperazin-1-yl)methyl)phenyl)pyridin-3-yl)-10,10-dimethyl-5,7-dioxo-6^1,6^2,6^3,6^4,6^5,6^6-hexahydro-1^1H-8-oxa-2(4,2)-thiazola-1(5,3)-indola-6(1,3)-pyridazinacycloundecaphane-4-yl)-2-methylcyclopropane-1-carboxamide]
5 | 836 | CCn1c(-c2cc(-c3cccc(CN4CCOCC4)c3)cnc2C(C)OC)c2c3cc(ccc31)-c1csc(n1)CC(NC(=O)C1CC1C)C(=O)N1CCCC(N1)C(=O)OCC(C)(C)C2 [Compound 9′, (1S,2S)-N-((6^3S,4S,Z)-1^1-ethyl-1^2-(2-((S)-1-methoxyethyl)-5-(3-(morpholinomethyl)phenyl)pyridin-3-yl)-10,10-dimethyl-5,7-dioxo-6^1,6^2,6^3,6^4,6^5,6^6-hexahydro-1^1H-8-oxa-2(4,2)-thiazola-1(5,3)-indola-6(1,3)-pyridazinacycloundecaphane-4-yl)-2-methylcyclopropane-1-carboxamide]
6 | 1800 | CCn1c(-c2cc(-c3ccc4c(c3)CN(C)CC4)cnc2C(C)OC)c2c3cc(ccc31)-c1csc(n1)CC(NC(=O)C1CC1C)C(=O)N1CCCC(N1)C(=O)OCC(C)(C)C2 [Compound 10′, (1S,2S)-N-((6^3S,4S,Z)-1^1-ethyl-1^2-(2-((S)-1-methoxyethyl)-5-(2-methyl-1,2,3,4-tetrahydroisoquinolin-7-yl)pyridin-3-yl)-10,10-dimethyl-5,7-dioxo-6^1,6^2,6^3,6^4,6^5,6^6-hexahydro-1^1H-8-oxa-2(4,2)-thiazola-1(5,3)-indola-6(1,3)-pyridazinacycloundecaphane-4-yl)-2-methylcyclopropane-1-carboxamide]
7 | 87 | CCn1c(-c2cc(-c3nnc(C)n3C)cnc2C(C)OC)c2c3cc(ccc31)-c1csc(n1)CC(NC(=O)C1CC1C)C(=O)N1CCCC(N1)C(=O)OCC(C)(C)C2 [Compound 20′, (1S,2S)-N-((6^3S,4S,Z)-1^2-(5-(4,5-dimethyl-4H-1,2,4-triazol-3-yl)-2-((S)-1-methoxyethyl)pyridin-3-yl)-1^1-ethyl-10,10-dimethyl-5,7-dioxo-6^1,6^2,6^3,6^4,6^5,6^6-hexahydro-1^1H-8-oxa-2(4,2)-thiazola-1(5,3)-indola-6(1,3)-pyridazinacycloundecaphane-4-yl)-2-methylcyclopropane-1-carboxamide]
8 | 1770 | CCn1c(-c2cc(-c3nc(C)no3)cnc2[C@H](C)OC)c2c3cc(ccc31)-c1csc(n1)C[C@H](NC(=O)[C@H]1C[C@@H]1C)C(=O)N1CCC[C@H](N1)C(=O)OCC(C)(C)C2 [Compound 21′, (1S,2S)-N-((6^3S,4S,Z)-1^1-ethyl-1^2-(2-((S)-1-methoxyethyl)-5-(3-methyl-1,2,4-oxadiazol-5-yl)pyridin-3-yl)-10,10-dimethyl-5,7-dioxo-6^1,6^2,6^3,6^4,6^5,6^6-hexahydro-1^1H-8-oxa-2(4,2)-thiazola-1(5,3)-indola-6(1,3)-pyridazinacycloundecaphane-4-yl)-2-methylcyclopropane-1-carboxamide]

The remaining lines, values behind:

Row | Structure (SMILES) | IC50 [nM]
9 | CCn1c(-c2cc(-c3ccc(CN4CCOCC4)cc3)cnc2C(C)OC)c2c3cc(ccc31)-c1csc(n1)CC(NC(=O)C1C(C)C1C)C(=O)N1CCCC(N1)C(=O)OCC(C)(C)C2 [Compound 1′, (1r,2R,3S)-N-((6^3S,4S,Z)-1^1-ethyl-1^2-(2-((S)-1-methoxyethyl)-5-(4-(morpholinomethyl)phenyl)pyridin-3-yl)-10,10-dimethyl-5,7-dioxo-6^1,6^2,6^3,6^4,6^5,6^6-hexahydro-1^1H-8-oxa-2(4,2)-thiazola-1(5,3)-indola-6(1,3)-pyridazinacycloundecaphane-4-yl)-2,3-dimethylcyclopropane-1-carboxamide] | 4770
10 | CCn1c(-c2cc(-c3cccc(CN(C)C)c3)cnc2[C@H](C)OC)c2c3cc(ccc31)-c1csc(n1)C[C@H](NC(=O)[C@H]1[C@H](C)[C@@H]1C)C(=O)N1CCC[C@H](N1)C(=O)OCC(C)(C)C2 [Compound 4′, (1r,2R,3S)-N-((6^3S,4S,Z)-1^2-(5-(3-((dimethylamino)methyl)phenyl)-2-((S)-1-methoxyethyl)pyridin-3-yl)-1^1-ethyl-10,10-dimethyl-5,7-dioxo-6^1,6^2,6^3,6^4,6^5,6^6-hexahydro-1^1H-8-oxa-2(4,2)-thiazola-1(5,3)-indola-6(1,3)-pyridazinacycloundecaphane-4-yl)-2,3-dimethylcyclopropane-1-carboxamide] | 646
11 | CCn1c(-c2cc(-c3ccc(CN4CCC(F)(F)CC4)cc3)cnc2C(C)OC)c2c3cc(ccc31)-c1csc(n1)CC(NC(=O)C1CC1C)C(=O)N1CCCC(N1)C(=O)OCC(C)(C)C2 [Compound 7′, (1S,2S)-N-((6^3S,4S,Z)-1^2-(5-(4-((4,4-difluoropiperidin-1-yl)methyl)phenyl)-2-((S)-1-methoxyethyl)pyridin-3-yl)-1^1-ethyl-10,10-dimethyl-5,7-dioxo-6^1,6^2,6^3,6^4,6^5,6^6-hexahydro-1^1H-8-oxa-2(4,2)-thiazola-1(5,3)-indola-6(1,3)-pyridazinacycloundecaphane-4-yl)-2-methylcyclopropane-1-carboxamide] | > 10000
12 | CCn1c(-c2cc(-c3cc(C4CN(C)CCO4)on3)cnc2C(C)OC)c2c3cc(ccc31)-c1csc(n1)CC(NC(=O)C1C(C)C1C)C(=O)N1CCCC(N1)C(=O)OCC(C)(C)C2 [Compound 26′, (1r,2R,3S)-N-((6^3S,4S,Z)-1^1-ethyl-1^2-(2-((S)-1-methoxyethyl)-5-(5-((R)-4-methylmorpholin-2-yl)isoxazol-3-yl)pyridin-3-yl)-10,10-dimethyl-5,7-dioxo-6^1,6^2,6^3,6^4,6^5,6^6-hexahydro-1^1H-8-oxa-2(4,2)-thiazola-1(5,3)-indola-6(1,3)-pyridazinacycloundecaphane-4-yl)-2,3-dimethylcyclopropane-1-carboxamide] | 13
13 | CCn1c(-c2cc(-c3cc(C4COCCN4C)on3)cnc2C(C)OC)c2c3cc(ccc31)-c1csc(n1)CC(NC(=O)C1C(C)C1C)C(=O)N1CCCC(N1)C(=O)OCC(C)(C)C2 [Compound 32′, (1r,2R,3S)-N-((6^3S,4S,Z)-1^1-ethyl-1^2-(2-((S)-1-methoxyethyl)-5-(5-((S)-4-methylmorpholin-3-yl)isoxazol-3-yl)pyridin-3-yl)-10,10-dimethyl-5,7-dioxo-6^1,6^2,6^3,6^4,6^5,6^6-hexahydro-1^1H-8-oxa-2(4,2)-thiazola-1(5,3)-indola-6(1,3)-pyridazinacycloundecaphane-4-yl)-2,3-dimethylcyclopropane-1-carboxamide] | 33
